Measurements: the supplement of paper PMC10702517
± gives the standard deviation.

test: chemical recovery from spiked human plasma; higher = better extraction; conditions: pooled human plasma; extraction method: PES+SPE (3 d PDMS equilibration then HLB SPE)

Point of comparison: `NC(=O)c1ccc(N)cc1` [4-Aminobenzamide], chemical recovery 3.92 ± 0.79%. Against it:
- S=C1NCCN1 [Ethylenethiourea] — lower, 0.046 ± 0.019%
- COCCCC/C(=N\OCCN)c1ccc(C(F)(F)F)cc1 [Fluvoxamine] — within error, 4.62 ± 1.6%
- Cc1cc(Cl)ccc1OCC(=O)O [MCPA] — higher, 46.2 ± 2.6%
- O=S(=O)(O)c1ccc2[nH]c(-c3ccccc3)nc2c1 [Phenylbenzimidazole sulfonic acid] — higher, 43.2 ± 2.9%
- C#CC(C)(C)NC(=O)c1cc(Cl)cc(Cl)c1 [Propyzamide] — higher, 64.9 ± 12%
- COc1ccc(C(=O)c2ccccc2)c(O)c1 [Benzophenone-3] — higher, 41.3 ± 8.9%
- CNC(=O)Oc1cccc2c1OC(C)(C)O2 [Bendiocarb] — higher, 35.9 ± 5.4%
- c1ccc(-c2cccc3ccccc23)cc1 [1-Phenylnaphthalene] — higher, 45.1 ± 7.6%
- NC(=O)/N=C1\SCCN1Cc1ccc(Cl)nc1 [Thiacloprid amide] — higher, 42.5 ± 3.4%
- CCNS(=O)(=O)c1ccccc1C [N-Ethyl-o-toluenesulfonamide] — higher, 52.7 ± 7.9%
- CN1C(=O)C(O)N=C(c2ccccc2)c2cc(Cl)ccc21 (stereo not drawn) [Temazepam] — higher, 62.9 ± 6.2%

same assay, conditions: pooled human plasma; extraction method: SPE only (HLB 96-well)

Point of comparison: `S=C1NCCN1` [Ethylenethiourea], chemical recovery 0.261 ± 0.34%. Against it:
- CC1CN(C2CCCCCCCCCCC2)CC(C)O1 (stereo not drawn) [Dodemorph] — higher, 29 ± 0.98%
- COCCCC/C(=N\OCCN)c1ccc(C(F)(F)F)cc1 [Fluvoxamine] — higher, 51 ± 0.52%
- Cc1cc(Cl)ccc1OCC(=O)O [MCPA] — higher, 43.1 ± 3%
- Brc1cc(Br)c(Oc2cc(Br)c(Br)cc2Br)cc1Br [BDE153] — higher, 6.21 ± 3.4%
- O=S(=O)(O)c1ccc2[nH]c(-c3ccccc3)nc2c1 [Phenylbenzimidazole sulfonic acid] — higher, 36.9 ± 3.3%
- CCNc1nc(NC(C)C)nc(SC)n1 [Ametryn] — higher, 41.6 ± 3.1%
- C#CC(C)(C)NC(=O)c1cc(Cl)cc(Cl)c1 [Propyzamide] — higher, 65 ± 3.2%
- COc1ccc(C(=O)c2ccccc2)c(O)c1 [Benzophenone-3] — higher, 28.9 ± 1.7%
- N#Cc1nn(-c2c(Cl)cc(C(F)(F)F)cc2Cl)c(N)c1SC(F)(F)F [Fipronil sulfide] — higher, 30.6 ± 3.4%
- CNC(=O)Oc1cccc2c1OC(C)(C)O2 [Bendiocarb] — higher, 45.8 ± 1.5%
- c1ccc(-c2cccc3ccccc23)cc1 [1-Phenylnaphthalene] — higher, 12.2 ± 3%
- NC(=O)/N=C1\SCCN1Cc1ccc(Cl)nc1 [Thiacloprid amide] — higher, 33.6 ± 3.3%
- c1ccc2c(c1)-c1cccc3c1c-2cc1ccccc13 [Benzo(b)fluoranthene] — within error, 0.807 ± 0.61%
- CCNS(=O)(=O)c1ccccc1C [N-Ethyl-o-toluenesulfonamide] — higher, 46.9 ± 1.4%
- CN1C(=O)C(O)N=C(c2ccccc2)c2cc(Cl)ccc21 (stereo not drawn) [Temazepam] — higher, 46.8 ± 2.9%
- NC(=O)c1ccc(N)cc1 [4-Aminobenzamide] — higher, 3.28 ± 2.1%
- CC(C)N(C(=O)CCl)c1ccccc1 [Propachlor] — higher, 28.6 ± 2.1%

same assay, conditions: pooled human plasma; extraction method: SPE only (HLB 96-well), PES comparison experiment

Point of comparison: `COc1ccc(C(=O)c2ccccc2)c(O)c1` [Benzophenone-3], chemical recovery 33.1 ± 5.5%. Against it:
- CC(=O)[C@@]1(O)CC[C@H]2[C@@H]3C[C@H](C)C4=CC(=O)CC[C@]4(C)[C@H]3CC[C@@]21C [Medroxyprogesterone] — higher, 47.7 ± 7%
- CC1(C)O[C@@H]2C[C@H]3[C@@H]4C[C@H](F)C5=CC(=O)C=C[C@]5(C)[C@H]4[C@@H](O)C[C@]3(C)[C@]2(C(=O)CO)O1 [Flunisolide] — higher, 46.9 ± 5.2%
- CC1CN(C2CCCCCCCCCCC2)CC(C)O1 (stereo not drawn) [Dodemorph] — higher, 44.3 ± 4.7%
- CCCCCCCCCCCCCCN(C)C [N,N-Dimethyltetradecylamine] — within error, 39.3 ± 8.7%
- CC(C)C(=O)Nc1ccc([N+](=O)[O-])c(C(F)(F)F)c1 [Flutamide] — higher, 67.8 ± 5.2%
- COCCCC/C(=N\OCCN)c1ccc(C(F)(F)F)cc1 [Fluvoxamine] — within error, 41.8 ± 7.1%
- O=[N+]([O-])c1cc[n+]([O-])c2ccccc12 [4-Nitroquinoline-1-oxide] — within error, 42.3 ± 8.4%
- Cc1cc(Cl)ccc1OCC(=O)O [MCPA] — higher, 59.9 ± 5.7%
- ClC(Cl)=C(c1ccc(Cl)cc1)c1ccc(Cl)cc1 [4,4-DDE] — lower, 13 ± 3%
- O=S(=O)(O)c1ccc2[nH]c(-c3ccccc3)nc2c1 [Phenylbenzimidazole sulfonic acid] — higher, 52 ± 5.8%
- CCNc1nc(NC(C)C)nc(SC)n1 [Ametryn] — higher, 44.1 ± 4.6%
- C#CC(C)(C)NC(=O)c1cc(Cl)cc(Cl)c1 [Propyzamide] — higher, 48.1 ± 8.4%
- CN(C)NC(=O)CCC(=O)O [Daminozide] — lower, 3.23 ± 3.4%
- N#Cc1nn(-c2c(Cl)cc(C(F)(F)F)cc2Cl)c(N)c1SC(F)(F)F [Fipronil sulfide] — higher, 64 ± 7%
- CNC(=O)Oc1cccc2c1OC(C)(C)O2 [Bendiocarb] — higher, 45.4 ± 4.6%
- c1ccc(-c2cccc3ccccc23)cc1 [1-Phenylnaphthalene] — lower, 17.3 ± 3%
- NC(=O)/N=C1\SCCN1Cc1ccc(Cl)nc1 [Thiacloprid amide] — higher, 51.2 ± 7%
- CCNS(=O)(=O)c1ccccc1C [N-Ethyl-o-toluenesulfonamide] — higher, 52.6 ± 6.1%
- CN1C(=O)C(O)N=C(c2ccccc2)c2cc(Cl)ccc21 (stereo not drawn) [Temazepam] — within error, 44.5 ± 6.3%
- CC(C)N(C(=O)CCl)c1ccccc1 [Propachlor] — within error, 41.4 ± 7.8%

same assay, conditions: pooled human plasma; extraction method: solvent precipitation (ACN + hexane)

Point of comparison: `Cc1cc(Cl)ccc1OCC(=O)O` [MCPA], chemical recovery 71.8 ± 7.4%. Against it:
- CC1CN(C2CCCCCCCCCCC2)CC(C)O1 (stereo not drawn) [Dodemorph] — within error, 73 ± 8.6%
- Brc1cc(Br)c(Oc2cc(Br)c(Br)cc2Br)cc1Br [BDE153] — lower, 44.6 ± 2.3%
- O=S(=O)(O)c1ccc2[nH]c(-c3ccccc3)nc2c1 [Phenylbenzimidazole sulfonic acid] — lower, 27.9 ± 3.1%
- CCNc1nc(NC(C)C)nc(SC)n1 [Ametryn] — within error, 72.1 ± 3.1%
- C#CC(C)(C)NC(=O)c1cc(Cl)cc(Cl)c1 [Propyzamide] — within error, 64.8 ± 3.9%
- COc1ccc(C(=O)c2ccccc2)c(O)c1 [Benzophenone-3] — within error, 65 ± 3.6%
- N#Cc1nn(-c2c(Cl)cc(C(F)(F)F)cc2Cl)c(N)c1SC(F)(F)F [Fipronil sulfide] — lower, 49.8 ± 3.9%
- CNC(=O)Oc1cccc2c1OC(C)(C)O2 [Bendiocarb] — lower, 0.0898 ± 0.13%
- NC(=O)/N=C1\SCCN1Cc1ccc(Cl)nc1 [Thiacloprid amide] — within error, 78 ± 3.3%
- c1ccc2c(c1)-c1cccc3c1c-2cc1ccccc13 [Benzo(b)fluoranthene] — lower, 36 ± 1.5%
- CCNS(=O)(=O)c1ccccc1C [N-Ethyl-o-toluenesulfonamide] — within error, 68.2 ± 2.2%
- CN1C(=O)C(O)N=C(c2ccccc2)c2cc(Cl)ccc21 (stereo not drawn) [Temazepam] — within error, 77.8 ± 3.1%
- NC(=O)c1ccc(N)cc1 [4-Aminobenzamide] — within error, 98.6 ± 21%
- CC(C)N(C(=O)CCl)c1ccccc1 [Propachlor] — lower, 45.1 ± 10%

test: chemical recovery into PDMS from spiked human plasma; higher = better extraction; conditions: pooled human plasma; extraction method: PES with PDMS; equilibration time (d): 1

Point of comparison: `O=S(=O)(O)c1ccc2[nH]c(-c3ccccc3)nc2c1` [Phenylbenzimidazole sulfonic acid], “chemical recovery into PDMS” value 0.124 ± 0.24%. Against it:
- CC(=O)[C@@]1(O)CC[C@H]2[C@@H]3C[C@H](C)C4=CC(=O)CC[C@]4(C)[C@H]3CC[C@@]21C [Medroxyprogesterone] — higher, 40.5 ± 2.4%
- CC1(C)O[C@@H]2C[C@H]3[C@@H]4C[C@H](F)C5=CC(=O)C=C[C@]5(C)[C@H]4[C@@H](O)C[C@]3(C)[C@]2(C(=O)CO)O1 [Flunisolide] — higher, 5.95 ± 0.6%
- CC1CN(C2CCCCCCCCCCC2)CC(C)O1 (stereo not drawn) [Dodemorph] — higher, 1.2 ± 0.66%
- CC(C)C(=O)Nc1ccc([N+](=O)[O-])c(C(F)(F)F)c1 [Flutamide] — higher, 32.4 ± 1.4%
- COCCCC/C(=N\OCCN)c1ccc(C(F)(F)F)cc1 [Fluvoxamine] — higher, 2.41 ± 0.97%
- O=[N+]([O-])c1cc[n+]([O-])c2ccccc12 [4-Nitroquinoline-1-oxide] — higher, 14.2 ± 0.49%
- Cc1cc(Cl)ccc1OCC(=O)O [MCPA] — within error, 0.00252 ± 0.0044%
- ClC(Cl)=C(c1ccc(Cl)cc1)c1ccc(Cl)cc1 [4,4-DDE] — higher, 83.8 ± 12%
- CCNc1nc(NC(C)C)nc(SC)n1 [Ametryn] — higher, 13.2 ± 4.9%
- C#CC(C)(C)NC(=O)c1cc(Cl)cc(Cl)c1 [Propyzamide] — higher, 34.8 ± 1.4%
- COc1ccc(C(=O)c2ccccc2)c(O)c1 [Benzophenone-3] — higher, 35.5 ± 1.5%
- N#Cc1nn(-c2c(Cl)cc(C(F)(F)F)cc2Cl)c(N)c1SC(F)(F)F [Fipronil sulfide] — higher, 22.6 ± 0.34%
- CNC(=O)Oc1cccc2c1OC(C)(C)O2 [Bendiocarb] — higher, 25.2 ± 0.81%
- c1ccc(-c2cccc3ccccc23)cc1 [1-Phenylnaphthalene] — higher, 70.3 ± 20%
- NC(=O)/N=C1\SCCN1Cc1ccc(Cl)nc1 [Thiacloprid amide] — higher, 2.46 ± 0.75%
- CCNS(=O)(=O)c1ccccc1C [N-Ethyl-o-toluenesulfonamide] — higher, 23.5 ± 1.3%
- CN1C(=O)C(O)N=C(c2ccccc2)c2cc(Cl)ccc21 (stereo not drawn) [Temazepam] — higher, 11.2 ± 0.91%
- NC(=O)c1ccc(N)cc1 [4-Aminobenzamide] — within error, 0.339 ± 0.59%
- CC(C)N(C(=O)CCl)c1ccccc1 [Propachlor] — higher, 31.9 ± 1.8%

same assay, conditions: pooled human plasma; extraction method: PES with PDMS; equilibration time (d): 3

Point of comparison: `C#CC(C)(C)NC(=O)c1cc(Cl)cc(Cl)c1` [Propyzamide], “chemical recovery into PDMS” value 38.5 ± 1.1%. Against it:
- CC(=O)[C@@]1(O)CC[C@H]2[C@@H]3C[C@H](C)C4=CC(=O)CC[C@]4(C)[C@H]3CC[C@@]21C [Medroxyprogesterone] — higher, 46.2 ± 3.4%
- CC1(C)O[C@@H]2C[C@H]3[C@@H]4C[C@H](F)C5=CC(=O)C=C[C@]5(C)[C@H]4[C@@H](O)C[C@]3(C)[C@]2(C(=O)CO)O1 [Flunisolide] — lower, 10.2 ± 1.6%
- CC1CN(C2CCCCCCCCCCC2)CC(C)O1 (stereo not drawn) [Dodemorph] — lower, 1.32 ± 1%
- CCCCCCCCCCCCCCN(C)C [N,N-Dimethyltetradecylamine] — lower, 0.0161 ± 0.022%
- CC(C)C(=O)Nc1ccc([N+](=O)[O-])c(C(F)(F)F)c1 [Flutamide] — within error, 36.2 ± 3.1%
- COCCCC/C(=N\OCCN)c1ccc(C(F)(F)F)cc1 [Fluvoxamine] — lower, 1.09 ± 0.96%
- O=[N+]([O-])c1cc[n+]([O-])c2ccccc12 [4-Nitroquinoline-1-oxide] — lower, 14.7 ± 1.4%
- Cc1cc(Cl)ccc1OCC(=O)O [MCPA] — lower, 0.00652 ± 0.0057%
- Brc1cc(Br)c(Oc2cc(Br)c(Br)cc2Br)cc1Br [BDE153] — higher, 68.9 ± 6.3%
- ClC(Cl)=C(c1ccc(Cl)cc1)c1ccc(Cl)cc1 [4,4-DDE] — higher, 87.9 ± 3.9%
- CCNc1nc(NC(C)C)nc(SC)n1 [Ametryn] — lower, 20.6 ± 7.4%
